Data: US9550792B2, “Polycyclic substituted pyrazole kinase activity inhibitors and use thereof” (priority 2013, dated 2017)
In brackets after ≈: the same amount, converted by molar mass. Read-outs that look alike come from different tables or passages of the source.

What was measured:
Plasma stability = format: in vitro ADME; conditions: rat plasma
Description: 300 μL blood collected from the rat was mixed with 30 μL methanol and 2 mL ethyl acetate. The samples were vortexed for 3 min and centrifuged at 4000 rpm for 15 min. The supernatant was introduced into another centrifugal tube. The lower layer was repeatedly extracted and then the supernatants were combined and dried with nitrogen gas. After redissolution with 150 μL methanol, they were filtered by 0.22 μm membrane and then subjected to analysis with a injection volume of 20 μL.
[…] The samples were prepared according to the method of 3.1. 20 μL were introduced into the HPLC system and the peak area is recorded for analysis to determine the stability of compound 1 and 2 in plasma.

lung cancer cell H1299 = experiment: Anti-tumor activity in vitro, MTT method; format: cell-based; conditions: Homo sapiens, NCI-H1299, 48 h, read-out: H1299 (IC50/μM)
[1] = system: liver cancer cell line 7721; experiment: Anti-tumor activity in vitro, MTT method; format: cell-based; conditions: 48 h, read-out: 7721 (IC50/μM)
[2] = Measurement of water solubility; format: physicochemical; conditions: thermodynamic from solid, distilled water, 25° C.
Description: An excess quantity of sample was added into a 50 mL triangular flask, to which 10 mL distilled water was added, and then the flask was vibrated in a Constant Temperature Vibrator at 25° C. for 72 h. The solution was centrifuged at 10000 r/min for 15 min and then the supernatant was filtrated with […] microfiltration membrane to remove undissolved drug. 2 mL filtrate was metered with methanol to 10 ml. The content of drug was determined with 20 μL sample injection.

[3] = system: Candida albicans - ATCC 36082; experiment: Antifungal activity, modified broth microdilution; format: cell-based; conditions: Candida albicans, ATCC36082; 48 hours at 35, approximately 50% reduction of growth
Description: (§1) The test microorganisms are maintained on Sabourahd Dextrose Agar slant at 4[…]. Singlet suspension of each microorganism is prepared by growing the yeast overnight at 27[…] on a rotating drum in yeast-nitrogen base broth (YNB) with amino acids (Difco, Detroit, Mich.), (pH 7.0) and 0.05 morpholine propanesulphonic acid (MOPS). […] The activity of the test compound is determined using a modified broth microdilution technique. […] Well 12 serves as a growth control. […] Inoculated plate is incubated for 48 hours at 35 °C. […] Minimal Cytolytic Concentration (MCC) is determined by subculturing all wells from the 96-well plate onto a Sabourahd Dextrose Agar (SDA) plate, incubating for 1-2 days at 35 °C, and then checking viability.

Cryptococcus neoformans = experiment: Antifungal activity, modified broth microdilution; format: cell-based; conditions: Cryptococcus neoformans; 48 hours at 35, approximately 50% reduction of growth
Description: as §1

Candida parapsilosis = experiment: Antifungal activity, modified broth microdilution; format: cell-based; conditions: Lodderomyces parapsilosis; 48 hours at 35, approximately 50% reduction of growth
Description: as §1

Candida tropicalis = experiment: Antifungal activity, modified broth microdilution; format: cell-based; conditions: Candida tropicalis; 48 hours at 35, approximately 50% reduction of growth
Description: as §1

[4] = Measurement of lipid-water partition coefficient (Log P); format: physicochemical; conditions: n-octanol/distilled water, 25° C.
Description: n-octanol and distilled water were allowed to saturate each other for 24 h. An amount of the sample was weighed accurately into a 50 mL volumetric flask and metered with n-octanol that was saturated with water (the sample was dissolved completely). A 10 mL solution of the sample in n-octanol was placed in a 50 mL triangular flask, to which was added 10 mL distilled water which was saturated with n-octanol. The mixture was equilibrated (125 rpm, 72 h) at 25° C. with a constant temperature vibrator. The lipid-water partition coefficient was calculated by the concentrations of the drug in the n-octanol stock solution before the experiment and in the n-octanol layer after experiment.

[5] = system: colon cancer cell line HCT116; experiment: Anti-tumor activity in vitro, MTT method; format: cell-based; conditions: Homo sapiens, HCT-116, 48 h
Phytophthora infestans = format: in vivo
CDK9/cyclin K = CDK9/cyclin K (Homo sapiens, UniProt P50750); experiment: Kinase IC50, 33P labeled isotope method; format: biochemical; conditions: 20 μM ATP
Sequence of CDK9/cyclin K (P50750 19-315 limits assumed): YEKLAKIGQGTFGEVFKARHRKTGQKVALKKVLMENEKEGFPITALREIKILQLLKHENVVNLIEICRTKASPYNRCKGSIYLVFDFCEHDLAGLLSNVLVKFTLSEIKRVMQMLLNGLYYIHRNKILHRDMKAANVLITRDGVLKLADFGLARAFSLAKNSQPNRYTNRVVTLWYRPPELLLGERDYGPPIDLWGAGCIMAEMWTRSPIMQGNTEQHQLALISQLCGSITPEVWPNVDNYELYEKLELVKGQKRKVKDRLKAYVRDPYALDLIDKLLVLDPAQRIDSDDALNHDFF
Sequence of CDK9/cyclin K (O75909 whole entry partner): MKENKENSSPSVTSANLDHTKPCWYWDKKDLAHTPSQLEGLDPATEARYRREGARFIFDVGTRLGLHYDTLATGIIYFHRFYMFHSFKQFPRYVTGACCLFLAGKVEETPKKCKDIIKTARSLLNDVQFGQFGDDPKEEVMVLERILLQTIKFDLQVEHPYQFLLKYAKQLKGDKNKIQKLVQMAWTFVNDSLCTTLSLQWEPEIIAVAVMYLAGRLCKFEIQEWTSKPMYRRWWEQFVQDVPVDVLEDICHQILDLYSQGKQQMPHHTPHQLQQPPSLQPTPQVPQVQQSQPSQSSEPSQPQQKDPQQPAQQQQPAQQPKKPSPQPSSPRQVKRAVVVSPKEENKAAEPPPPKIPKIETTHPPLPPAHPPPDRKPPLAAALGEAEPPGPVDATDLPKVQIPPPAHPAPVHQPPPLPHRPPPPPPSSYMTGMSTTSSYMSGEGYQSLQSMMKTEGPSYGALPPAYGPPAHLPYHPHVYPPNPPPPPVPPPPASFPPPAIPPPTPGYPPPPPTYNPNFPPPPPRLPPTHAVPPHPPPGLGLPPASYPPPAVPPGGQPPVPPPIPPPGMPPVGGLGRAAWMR

CDK6/cyclin D1 = CDK6/cyclin D1 (Homo sapiens, UniProt Q00534); experiment: Kinase IC50, 33P labeled isotope method; format: biochemical
Sequence of CDK6/cyclin D1 (Q00534 13-300 limits assumed): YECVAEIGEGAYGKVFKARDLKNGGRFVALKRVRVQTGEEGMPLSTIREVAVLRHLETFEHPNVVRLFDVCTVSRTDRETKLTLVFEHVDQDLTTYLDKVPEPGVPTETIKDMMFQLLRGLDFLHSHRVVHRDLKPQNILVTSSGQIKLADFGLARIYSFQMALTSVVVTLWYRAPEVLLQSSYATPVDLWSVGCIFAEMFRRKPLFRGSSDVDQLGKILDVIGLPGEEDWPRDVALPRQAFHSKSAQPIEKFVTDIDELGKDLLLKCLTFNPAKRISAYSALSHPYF
Sequence of CDK6/cyclin D1 (P24385 whole entry partner): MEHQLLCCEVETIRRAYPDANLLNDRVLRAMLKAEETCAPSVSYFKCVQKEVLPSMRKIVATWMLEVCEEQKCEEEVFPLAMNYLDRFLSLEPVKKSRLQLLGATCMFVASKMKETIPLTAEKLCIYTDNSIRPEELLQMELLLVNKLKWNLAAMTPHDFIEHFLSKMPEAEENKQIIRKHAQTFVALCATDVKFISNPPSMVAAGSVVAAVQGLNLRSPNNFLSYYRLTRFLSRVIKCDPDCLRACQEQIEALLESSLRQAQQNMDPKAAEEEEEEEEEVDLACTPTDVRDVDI

GSK3b = GSK3b (Homo sapiens, UniProt P49841); experiment: Kinase IC50, 33P labeled isotope method; format: biochemical; conditions: 20 μM ATP
Sequence of GSK3b (P49841 56-340 limits assumed): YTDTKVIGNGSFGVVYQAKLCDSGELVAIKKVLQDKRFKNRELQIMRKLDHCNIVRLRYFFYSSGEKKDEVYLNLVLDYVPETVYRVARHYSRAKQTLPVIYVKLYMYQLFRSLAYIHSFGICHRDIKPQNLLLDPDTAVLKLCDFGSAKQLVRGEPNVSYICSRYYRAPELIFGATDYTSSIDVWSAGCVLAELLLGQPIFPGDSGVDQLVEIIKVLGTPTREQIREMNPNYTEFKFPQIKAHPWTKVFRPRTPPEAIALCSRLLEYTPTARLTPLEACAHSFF

FLT4/VEGFR3 = FLT4/VEGFR3 (Homo sapiens, UniProt P35916); experiment: Kinase IC50, 33P labeled isotope method; format: biochemical
Sequence of FLT4/VEGFR3 (P35916 845-1173 limits assumed): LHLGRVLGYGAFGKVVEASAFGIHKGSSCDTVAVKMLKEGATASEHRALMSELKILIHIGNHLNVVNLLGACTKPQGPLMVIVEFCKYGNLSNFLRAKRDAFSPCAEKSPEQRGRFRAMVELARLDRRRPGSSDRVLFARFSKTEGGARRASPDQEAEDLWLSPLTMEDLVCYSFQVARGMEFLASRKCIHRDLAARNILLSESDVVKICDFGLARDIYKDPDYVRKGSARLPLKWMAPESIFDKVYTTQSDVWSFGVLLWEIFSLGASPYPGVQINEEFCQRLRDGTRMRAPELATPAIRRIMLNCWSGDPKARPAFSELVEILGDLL

FLT3 = molecular target: T1, FLT3 (Homo sapiens, UniProt P36888); experiment: Kinase IC50, 33P labeled isotope method; format: biochemical; conditions: 20 μM ATP
T1 sequence (P36888 610-943 limits assumed): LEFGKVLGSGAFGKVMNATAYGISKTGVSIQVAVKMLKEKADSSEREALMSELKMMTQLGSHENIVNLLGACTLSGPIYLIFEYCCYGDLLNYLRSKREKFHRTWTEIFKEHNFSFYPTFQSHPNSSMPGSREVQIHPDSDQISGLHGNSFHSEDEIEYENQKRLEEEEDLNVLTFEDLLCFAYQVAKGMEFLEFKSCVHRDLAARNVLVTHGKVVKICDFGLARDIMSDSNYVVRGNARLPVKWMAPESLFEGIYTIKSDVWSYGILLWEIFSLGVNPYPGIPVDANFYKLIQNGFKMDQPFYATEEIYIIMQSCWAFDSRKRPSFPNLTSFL

SMILES	MIC [3] [µg/mL]	MIC (Cryptococcus neoformans) [µg/mL]	MIC (Candida parapsilosis) [µg/mL]	MIC (Candida tropicalis) [µg/mL]	Severity of tomato leaf blight (Phytophthora infestans; 0.0001 (unit not given))	Severity of tomato leaf blight (Phytophthora infestans; 0.001 (unit not given))	Severity of tomato leaf blight (Phytophthora infestans; 0.01 (unit not given))	Severity of tomato leaf blight (Phytophthora infestans; 0.1 (unit not given))	IC50 (CDK9/cyclin K) [nM]	melting point [°C]	IC50 (GSK3b) [nM]	IC50 (FLT3) [nM]	further results
CN1CCN(Cc2ccc(NC(=O)c3n[nH]cc3Nc3ncnc4sccc34)cc2)CC1 [Compound I-1, 4-(4-thieno[2,3-d]pyrimidinylamino)-N-(4-((4-methyl-1-piperazinyl)methyl)phenyl)-1H-3-pyrazole carboxamide]	2.9 (≈ 6.47 µM)	3.64 (≈ 8.11 µM)	2.08 (≈ 4.64 µM)	2.3 (≈ 5.13 µM)	+++ (40-60% blight)	++ (15-40% blight)	+ (0-15% blight)	−	39				plasma stability in 24 h (in words) (Plasma stability): good plasma stability; Plasma stability (HPLC reading) (Plasma stability; Time 0 h): 2.16; Plasma stability (HPLC reading) (Plasma stability; Time 1 h): 2.24; Plasma stability (HPLC reading) (Plasma stability; Time 2 h): 2.22; Plasma stability (HPLC reading) (Plasma stability; Time 3 h): 2.12; Plasma stability (HPLC reading) (Plasma stability; Time 5 h): 2.11; Plasma stability (HPLC reading) (Plasma stability; Time 8 h): 1.91; Plasma stability (HPLC reading) (Plasma stability; Time 12 h): 1.84; Plasma stability (HPLC reading) (Plasma stability; Time 24 h): 1.95; IC50 (lung cancer cell H1299): 3.3 µM; IC50 [1]: 6.23 µM; solubility at 72 h [2]: < 0.1 µg/mL; logP at 72 h [4]: 1.27; IC50 ([5]; read-out: HCT116 (IC50/μM)): 0.25 µM; IC50 ([5]; read-out: HCT-116 (IC50/μM)): 0.13 µM
O=C(Nc1ccc(CN2CCOCC2)cc1)c1n[nH]cc1Nc1ncnc2sccc12 [Compound I-2, 4-(4-thieno[2,3-d]pyrimidinylamino)-N-(4-((4-morpholinyl)methyl)phenyl)-1H-3-pyrazolecarboxamide]										262 to 265			plasma stability in 24 h (in words) (Plasma stability): good plasma stability; Plasma stability (HPLC reading) (Plasma stability; Time 0 h): 2.36; Plasma stability (HPLC reading) (Plasma stability; Time 1 h): 2.34; Plasma stability (HPLC reading) (Plasma stability; Time 2 h): 2.29; Plasma stability (HPLC reading) (Plasma stability; Time 3 h): 2.21; Plasma stability (HPLC reading) (Plasma stability; Time 5 h): 2.16; Plasma stability (HPLC reading) (Plasma stability; Time 8 h): 2.11; Plasma stability (HPLC reading) (Plasma stability; Time 12 h): 1.97; Plasma stability (HPLC reading) (Plasma stability; Time 24 h): 1.85; solubility at 72 h [2]: < 0.08 µg/mL; logP at 72 h [4]: 1.28
Cc1cc2c(Nc3c[nH]nc3C(=O)Nc3ccc(CN4CCN(C)CC4)cc3)ncnc2s1 [Compound I-3, 4-(4-(6-methylthieno[2,3-d]pyrimidinyl)amino)-N-(4-((4-methyl-1-piperazinyl)methyl)phenyl)-1H-3-pyrazolecarboxamide]									37	235 to 238	1		IC50 (CDK6/cyclin D1; 20 μM ATP, read-out: IC50* CDK6/cyclin D1): 4 nM; IC50 (FLT4/VEGFR3; 20 μM ATP, read-out: IC50* FLT4/VEGFR3): 4 nM
CN1CCN(Cc2ccc(NC(=O)c3n[nH]cc3Nc3ncnc4[nH]ccc34)cc2)CC1 [Compound I-11, 4-(4-(7H-pyrrolo[2,3-d]pyrimidinyl)amino)-N-(4-((4-methyl-1-piperazinyl)methyl)phenyl)-1H-3-pyrazolecarboxamide]	7.45 (≈ 17.3 µM)	15 (≈ 34.8 µM)	11.2 (≈ 26 µM)	7.72 (≈ 17.9 µM)	+++ (40-60% blight)	++ (15-40% blight)	+ (0-15% blight)	−			1	1	IC50 (CDK6/cyclin D1): 4 nM; IC50 (FLT4/VEGFR3): 4 nM
Cc1cc2c(Nc3c[nH]nc3C(=O)Nc3ccc(CN4CCN(C)CC4)cc3)ncnc2[nH]1 [Compound I-13, 4-(4-(6-methyl-7H-pyrrolo[2,3-d]pyrimidinyl)amino)-N-(4-((4-methyl-1-piperazinyl)methyl)phenyl)-1H-3-pyrazolecarboxamide]	5.85 (≈ 13.1 µM)	4.23 (≈ 9.49 µM)	0.98 (≈ 2.2 µM)	3.24 (≈ 7.27 µM)	++ (15-40% blight)	++ (15-40% blight)	+ (0-15% blight)	−	43	268 to 270	1	1	
CN1CCN(Cc2ccc(NC(=O)c3n[nH]cc3Nc3ncnc4occc34)cc2)CC1 [Compound I-21, 4-(4-furo[2,3-d]pyrimidinylamino)-N-(4-((4-methyl-1-piperazinyl)methyl)phenyl)-1H-3-pyrazolecarboxamide]	7.82 (≈ 18.1 µM)	13.8 (≈ 32 µM)	9.76 (≈ 22.6 µM)	8.29 (≈ 19.2 µM)	++++ (>60% blight)	++ (15-40% blight)	+ (0-15% blight)	−	45	255 to 257	1	1	IC50 (lung cancer cell H1299): 7.66 µM; IC50 [1]: 17.4 µM; IC50 ([5]; read-out: HCT-116 (IC50/μM)): 9.58 µM
Cc1cc2c(Nc3c[nH]nc3C(=O)Nc3ccc(CN4CCN(C)CC4)cc3)nccc2s1 [Compound I-27, 4-(4-(2-methylthieno[3,2-c]pyridyl)amino)-N-(4-((4-methyl-1-piperazinyl)methyl)phenyl)-1H-3-pyrazolecarboxamide]	5.48 (≈ 11.9 µM)	4.06 (≈ 8.8 µM)	1.02 (≈ 2.21 µM)	3.57 (≈ 7.73 µM)	++++ (>60% blight)	++ (15-40% blight)	+ (0-15% blight)	−	43	267 to 269	1	1	
